Laboratory results from patent US20090317373A1, “Inhibition of the Anti-FVIII Immune Response” (Institut National De La Sante Et De La Recherche Medicale, priority 2005, published 2009).

Legend:
[1] = test system: human DCs derived from monocytes; test: In vitro internalization of fluorescent ligands by human DCs derived from monocytes (flow cytometry); type: cell-based
Procedure: DCs were prepared from monocytes as described previously (29) with a change in the culture media. Briefly, mononucleated cells were isolated from heparinized leukoplatelet layers (“buffy coats”) from healthy adult donors by adhesion on plastic cell culture dishes in RPMI 1640 medium supplemented with 10% human AB serum, glutamine and antibiotics for 60 minutes. Non-adhering cells were removed by 3 gentle washings with the medium. The adhering monocytes were cultured in X-VIVO 15 medium (Cambrex Bio Sciences, Paris, France) supplemented with 1% human AB serum and antibiotics and in the presence of 500 IU/ml of recombinant human interleukin-4 (rhIL-4), R&D Systems (Lille, France) and 1,000 IU/ml of recombinant human granulocyte macrophage colony-stimulating factor (rhGM-CSF), Immunotools (Friesoythe, Germany). Half of the medium, comprising all the supplements, was replaced every two days. After culture for 5 days, the non-adhering cells and those with little adhesion, corresponding to the fraction enriched in DC, were harvested, washed and used for subsequent experiments.
Whole recombinant human FVIII (1,000 IU, Kogenate, Bayer) or B domain-deleted recombinant human FVIII (FVIII-BDD) (1,000 IU, Refacto, Wyeth) were solubilized in water and dialyzed against bicarbonate buffer (pH 9.2) containing CaCl2, 5 mM at 4° C., followed by coupling to fluorescein 5-isothiocyanate (isomer I, Sigma-Aldrich, Saint Quentin Fallavier, France) for 7-8 hours at 4° C. The labelled FVIII was then dialyzed against RPMI 1640 medium to remove non-coupled FITC. The FVIII-FITC was quantified by the Bradford method using bovine serum albumin as the standard.
The DCs obtained in Example 1 (0.4×10^5 cells/well of a 96-well plate with 100 μl/well) were incubated with various doses (0.029, 0.057, 0.143 and 0.358 μM) of fluorescent conjugated ligands (FVIII-FITC, BDD-FVIII-FITC) obtained in Example 2 in X-VIVO medium for 0, 15, 60 and 120 min at 4° C. or at 37° C. After the incubation period, the cells were washed with cold PBS and analyzed by flow cytometry. To investigate the involvement of receptors in the internalization, the cells were preincubated for 30 min at 37° C. with […] and 1 mg/ml of mannan (Sigma-Aldrich, Saint Quentin Fallavier, France) before the addition of ligands conjugated to fluorescein. In addition to FVIII-FITC and FVIII-BDD-FITC, human α2-macroglobulin-MA (α2M) conjugated to FITC from Biomac (Leipzig, Germany), dextran-FITC (molecular weight 40,000) from Molecular Probes (Leiden, The Netherlands) and Lucifer yellow (LY-CH) from Sigma-Aldrich were used. The investigation of the internalization of FVIII was also carried out in the presence of 20 μg/ml of anti-mannose receptor monoclonal antibody (PAM-1, isotype IgG1) or anti-DC-SIGN monoclonal antibody ((AZN-D1, isotype IgG1) or mouse IgGλ,k conjugated to PE-Cy (BD Pharmingen, France). To investigate whether DC-SIGN is involved in the endocytosis of FVIII, the B lymphocyte line HD-420 transformed by wild-type EBV and transfected with DC-SIGN or not transfected was incubated with various concentrations of FVIII-FITC (0, 0.036, 0.072 and 0.143 μM) for 2 hours in RPMI 1640 medium supplemented with 10% FCS (foetal calf serum) and antibiotics. The analysis was carried out as for the DCs.

FVIII = FVIII (Homo sapiens, UniProt P00451); test: One-stage clotting test, residual FVIII activity in normal human plasma; type: biochemical; conditions: normal human plasma incubated with mannan 2 hours at 37° C.; FIG. 5a
FVIII, sequence (P00451 20-1667 limits assumed): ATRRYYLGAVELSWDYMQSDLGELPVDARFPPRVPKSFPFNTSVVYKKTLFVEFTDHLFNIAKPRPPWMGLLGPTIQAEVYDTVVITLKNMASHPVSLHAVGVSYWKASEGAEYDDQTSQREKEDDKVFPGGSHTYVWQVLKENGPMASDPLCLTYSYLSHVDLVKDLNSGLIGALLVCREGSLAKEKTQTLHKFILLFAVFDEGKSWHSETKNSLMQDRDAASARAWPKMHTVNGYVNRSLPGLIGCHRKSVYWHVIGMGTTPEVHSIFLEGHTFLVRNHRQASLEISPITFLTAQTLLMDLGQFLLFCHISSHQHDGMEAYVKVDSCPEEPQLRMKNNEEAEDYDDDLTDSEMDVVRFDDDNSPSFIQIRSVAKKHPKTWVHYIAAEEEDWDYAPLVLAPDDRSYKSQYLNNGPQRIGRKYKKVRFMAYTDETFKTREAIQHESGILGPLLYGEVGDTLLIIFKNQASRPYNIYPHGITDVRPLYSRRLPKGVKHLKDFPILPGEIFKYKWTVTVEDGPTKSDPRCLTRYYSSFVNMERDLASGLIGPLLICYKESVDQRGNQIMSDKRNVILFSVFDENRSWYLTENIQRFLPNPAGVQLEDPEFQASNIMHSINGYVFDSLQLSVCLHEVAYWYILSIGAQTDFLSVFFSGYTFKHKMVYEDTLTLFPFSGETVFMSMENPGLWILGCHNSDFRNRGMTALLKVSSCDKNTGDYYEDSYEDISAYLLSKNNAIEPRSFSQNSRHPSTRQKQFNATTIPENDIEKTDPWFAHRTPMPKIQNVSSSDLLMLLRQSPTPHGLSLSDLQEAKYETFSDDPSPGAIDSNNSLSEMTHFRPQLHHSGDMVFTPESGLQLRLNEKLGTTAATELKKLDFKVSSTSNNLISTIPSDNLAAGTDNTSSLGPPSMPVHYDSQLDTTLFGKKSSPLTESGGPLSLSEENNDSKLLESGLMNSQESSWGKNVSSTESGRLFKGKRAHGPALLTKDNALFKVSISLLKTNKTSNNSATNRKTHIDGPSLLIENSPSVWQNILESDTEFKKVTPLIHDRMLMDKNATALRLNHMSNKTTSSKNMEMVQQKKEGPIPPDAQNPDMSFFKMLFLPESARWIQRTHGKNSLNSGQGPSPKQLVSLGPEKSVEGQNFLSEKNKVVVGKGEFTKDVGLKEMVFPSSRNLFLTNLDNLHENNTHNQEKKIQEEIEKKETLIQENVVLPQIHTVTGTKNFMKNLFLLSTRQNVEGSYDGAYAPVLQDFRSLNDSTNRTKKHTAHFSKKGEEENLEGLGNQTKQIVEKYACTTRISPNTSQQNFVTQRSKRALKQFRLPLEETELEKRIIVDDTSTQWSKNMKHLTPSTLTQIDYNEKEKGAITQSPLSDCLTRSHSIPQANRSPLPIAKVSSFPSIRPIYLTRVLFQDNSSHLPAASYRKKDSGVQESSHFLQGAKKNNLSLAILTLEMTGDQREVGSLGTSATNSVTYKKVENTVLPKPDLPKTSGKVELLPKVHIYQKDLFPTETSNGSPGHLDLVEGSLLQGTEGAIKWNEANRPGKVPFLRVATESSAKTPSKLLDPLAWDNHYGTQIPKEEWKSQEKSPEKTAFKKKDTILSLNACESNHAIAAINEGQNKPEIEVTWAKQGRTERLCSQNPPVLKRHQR
FVIII, sequence (P00451 1668-2351 limits assumed): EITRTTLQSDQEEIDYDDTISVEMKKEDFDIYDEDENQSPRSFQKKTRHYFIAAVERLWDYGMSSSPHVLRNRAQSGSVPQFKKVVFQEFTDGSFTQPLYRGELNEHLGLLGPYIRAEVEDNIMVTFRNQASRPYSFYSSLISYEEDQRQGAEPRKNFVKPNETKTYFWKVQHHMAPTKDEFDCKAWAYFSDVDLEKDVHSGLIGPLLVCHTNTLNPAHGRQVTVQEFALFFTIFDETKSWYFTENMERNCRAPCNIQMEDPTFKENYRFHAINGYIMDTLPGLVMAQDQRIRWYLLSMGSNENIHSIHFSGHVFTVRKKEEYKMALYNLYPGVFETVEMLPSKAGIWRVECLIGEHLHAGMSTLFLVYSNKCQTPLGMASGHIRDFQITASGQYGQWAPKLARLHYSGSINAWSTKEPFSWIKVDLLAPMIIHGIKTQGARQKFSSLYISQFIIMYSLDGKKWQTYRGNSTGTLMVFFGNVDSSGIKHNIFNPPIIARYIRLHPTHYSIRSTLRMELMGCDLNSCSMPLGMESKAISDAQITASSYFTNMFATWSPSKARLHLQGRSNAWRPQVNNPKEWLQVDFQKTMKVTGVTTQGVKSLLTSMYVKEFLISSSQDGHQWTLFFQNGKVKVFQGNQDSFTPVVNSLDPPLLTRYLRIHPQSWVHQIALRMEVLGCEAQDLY
Procedure: Normal human plasma was incubated with an identical volume of mannan ([…]) for 2 hours at 37° C. The residual FVIII activity was measured in a one-stage clotting test using human placental […] as an activator (Dade Behring Marburg GmbH, Marburg, Germany) and FVIII-depleted plasma (Dade Behring Marburg GmbH, Marburg, Germany) as a substrate and a fibrin timer (Sysmex CA500, Dade Behring). The dilutions were performed in Owren-Koller buffer (Diagnostica Stago, Asnieres, France).

[2] = in the presence of mannan, FIG. 2d

effect on proclotting activity of FVIII (FVIII): does not block
Substance: mannan
neutralizing effect on the internalization of the antigen (dose dependence) ([1]; FVIII, FVIII-BDD and dextran, FIG. 2e): proportional to the dose
inhibition of internalization of α2M ([1]; excess of RAP or mannan, FIG. 2f): no effect
blocking of internalization of dextran [1, 2]: 80%
effect on internalization of Lucifer yellow (ly) [1, 2]: not affected
inhibition of endocytosis of FVIII-BDD ([1]; mannan 1 mg/ml, p<0.05): 41.3±17.2%
inhibition of endocytosis of whole FVIII ([1]; mannan 1 mg/ml, p<0.05): 35.0±10.0%
saturation concentration for inhibition of internalization ([1]; similar for FVIII, FVIII-BDD and dextran, FIG. 2e): 100 µg/mL
reduction of endocytosis of FVIII by the human DCs ([1]; summary statement in Example 5): up to 40%
